Source: patent US20070207957A1, “Composition For Accelerating Alcohol Metabolism Or Relieving Fatigue By Gluconeogenesis” (Kirin Beer Kabushiki Kaisha, priority 2004, published 2007)
Where two headings read alike, the source gives them in different places.

Key:
[1] = Ethanol metabolism in human (ND), sample intake before ethanol: blood levels; type: in vivo; settings: for blood ethanol level: human ALDH2*1/2 (ND), 3 mg/kg caffeine and/or 30 mg/kg serine orally 1 h before 0.4 g/kg ethanol, 30-180 minutes, vs control; for blood acetaldehyde level: human ND, 3 mg/kg caffeine and/or 30 mg/kg serine 1 h before 0.4 g/kg ethanol
Procedure: The subjects were asked to have no food and water from wake-up time to participate in the test. A control test was performed by 8 persons (as volunteers). Of the 8 persons participated in the control test, 5 persons were chosen to perform a sample administration test. […] . One hour after the sample intake, 5% ethanol solution (white liquor diluted with water) was divided into 6 portions and orally taken 6 times at the intervals of 4 minutes so as to take 0.4 g ethanol per a body weight (kg). Blood was taken immediately before alcohol drinking, 30, 60, 90, 120, and 180 minutes after alcohol drinking. Immediately upon taking blood, blood was mixed with a solution containing 0.6N perchlorate and 0.9% NaCl, and centrifugally separated at 3000 rpm for 20 minutes to remove protein. The ethanol, acetaldehyde and acetate concentrations of the supernatant were measured by gas chromatography manufactured by Perkin Elmer Corporation or Shimazu Corporation (Eriksson C J P et al., Anal. Biochem. Vol. 125, 259-263 (1982)). […] Furthermore, using the same plasma, blood lactate and pyruvate levels were measured by use of determiner LA (Kyowa Medics, Tokyo, Japan) and determiner PA (Kyowa Medics), respectively. Based on the ratio of lactate/pyruvate, the ratio of NADH/NAD^+ was calculated. On the other hand, at the same time of taking blood, 9-rank subjective evaluation was performed by the subjects with respect to “feeling of drunk” (by scores 0 to 8) and comfortable feeling (uncomfortable (score −4) to comfortable (score 4)).

[2] = Recovery from hypoglycemia at the time of fatigue (swimming mice); type: in vivo, Balb/c mice; settings: exhausted mice; 80 mg/kg caffeine and/or 200 mg/kg serine orally; vs water control
Procedure: A swimming experiment of male Balb/c mice (Japan SLC) was performed under flowing water by use of a flowing-water vessel (developed by Matsumoto in Kyoto University). The mice (4 weeks old) were allowed to swim once in two different days at a flow rate of about 4.5 L/min (about 16 cm/sec) for 15 to 20 minutes to allow the mice to get use to the swimming environment. On the next week, these mice (5 weeks old) were fasted for 3 hours. After that, blood was taken from the tail and blood glucose level was measured by GLUTESTACE (Sanwa Kagaku Kenkyusho Co., Ltd.). Immediately after this, the mice were allowed to swim at a flow rate of about 5.5 L/min (about 19 cm/sec), in an intermittent manner. Intermittent swim was performed repeating a cycle consisting of 10-minute swim and 10-minute rest, twice, and then repeating a cycle consisting of 5-minute swim and 10-minute rest until the mice became too exhausted to swim. After the mice too exhausted to swim were allowed to leave alone for 15 minutes, the blood glucose level was checked. […]. A blood glucose level was measured with time.

[3] = Blood glucose level in rats after caffeine administration; settings: 100 mg/kg body weight caffeine orally, plasma two hours later, vs water control
[4] = test system: serine dehydratase (SDS); test: Liver mRNA expression after caffeine administration (RT-PCR), SDS; settings: rats, 100 mg/kg caffeine orally, two hours, corrected on housekeeping gene P0
[5] = Blood ethanol level in rats, caffeine+serine administered before ethanol; type: in vivo, Wistar rats; settings: 20 mg/kg caffeine and/or 0.1 g/kg serine orally 1 h before ethanol 2 g/kg, blood 1, 2, 3 and 5 hours, vs water control
Procedure: Four groups were prepared in total as follow. A control group of rats (n=6) was prepared by orally administering water. […] . […] Blood was taken from the cervical vein 1, 2, 3 and 5 hours after the administration. Immediately upon taking, the blood was mixed well with a solution containing 0.6N perchlorate and 0.9% NaCl, and centrifugally separated at 3000 rpm for 20 minutes to remove protein. The ethanol concentration of the supernatant was measured with a gas chromatograph manufactured by Shimazu Corporation (Eriksson C J P et al., Anal. Biochem. Vol. 125, 259-263 (1982)).

[6] = mice; Kakuda T et al. 1996; cited from earlier work
[7] = rats; 20 mg/kg caffeine and/or 0.1 g/kg tryptophan 1 h before ethanol; blood two hours after ethanol
Procedure: One hour later, ethanol was administered. After further two hours, blood was taken from the aorta abdominalis under anesthesia with pentobarbital (Sigma).

[8] = Blood ethanol in rats, caffeine + each of 20 amino acids; settings: 0.1 g/kg amino acid together with 20 mg/kg caffeine 1 h before ethanol 2 g/kg, blood two hours after ethanol
Source text: One hour after the administration of each sample, ethanol (2 g/kg body weight) was orally administered. After further two hours, blood was taken from the aorta abdominalis under anesthesia with pentobarbital (Sigma).

[9] = Blood ethanol in rats, sample administered after ethanol; settings: 10 mg/kg caffeine and/or 100 mg/kg serine orally 1 h after ethanol 2 g/kg, blood five hours after ethanol, vs control
[10] = rat, in vivo; cited from earlier work
[11] = Dissolution of serine in non-sugar coffee; settings: 100, 500, 1000, 1500 and 2000 mg serine in 100 ml coffee

Structure (SMILES)	blood ethanol level [1]	blood acetaldehyde level [1]	blood glucose level: recovery from hypoglycemia at the time of fatigue [2]	blood glucose level [3]	mRNA expression level of SDS in liver [4]	blood ethanol level [5]	amount needed to significantly reduce the blood ethanol level [6]	blood ethanol level [7]	relative blood ethanol level compared to the caffeine-only group (regarded as 1) [8]	relative blood ethanol concentration [9]	acute half lethal dose [10]	dissolution in non-sugar coffee [11]
Cn1c(=O)c2c(ncn2C)n(C)c1=O [caffeine, 3,7-dihydro-1,3,7-trimethyl-1H-purine-2,6-dione, reference compound]	rarely changed	did not significantly change	recovered from hypoglycemia	increasing a blood glucose level	metabolism of serine and tryptophan was enhanced	significantly decreased 2 hours after ethanol administration; however, a significant effect was not observed in other time point	300 mg/kg body weight	A slight downward tendency was observed in the caffeine administration group, but it is not significant change	–	–	–	–
N[C@@H](CO)C(=O)O [serine]	rarely changed	did not significantly change	recovered from hypoglycemia	–	–	slightly decreased compared to the control group; however, this change observed in the all measurement time points had not a significance	–	–	blood ethanol reduction effect was observed	A slight downward tendency was observed in the serine single administration group compared to the control group, but it was not significant change	14 g/kg body weight	easily dissolved in non-sugar coffee without any appearance problem such as precipitation and turbidity
N[C@@H](Cc1c[nH]c2ccccc12)C(=O)O [tryptophan]	–	–	–	–	–	–	–	No change was observed	blood ethanol reduction effect was observed	–	–	–
